In the Kinase Knowledgebase extract (Sharma et al. 2016):

Experiments:
Test in all cases: Enzyme Assay
[1] = biological target: PIK3CB (Human) (UniProt P42338)
[2] = biological target: PIK3CD (Human) (UniProt O00329)
[3] = biological target: PIK3CG (human) (UniProt P48736)
[4] = biological target: PIK3CA (human) (UniProt P42336)
Chain of PIK3CA (human) (P42336 whole entry, looked up): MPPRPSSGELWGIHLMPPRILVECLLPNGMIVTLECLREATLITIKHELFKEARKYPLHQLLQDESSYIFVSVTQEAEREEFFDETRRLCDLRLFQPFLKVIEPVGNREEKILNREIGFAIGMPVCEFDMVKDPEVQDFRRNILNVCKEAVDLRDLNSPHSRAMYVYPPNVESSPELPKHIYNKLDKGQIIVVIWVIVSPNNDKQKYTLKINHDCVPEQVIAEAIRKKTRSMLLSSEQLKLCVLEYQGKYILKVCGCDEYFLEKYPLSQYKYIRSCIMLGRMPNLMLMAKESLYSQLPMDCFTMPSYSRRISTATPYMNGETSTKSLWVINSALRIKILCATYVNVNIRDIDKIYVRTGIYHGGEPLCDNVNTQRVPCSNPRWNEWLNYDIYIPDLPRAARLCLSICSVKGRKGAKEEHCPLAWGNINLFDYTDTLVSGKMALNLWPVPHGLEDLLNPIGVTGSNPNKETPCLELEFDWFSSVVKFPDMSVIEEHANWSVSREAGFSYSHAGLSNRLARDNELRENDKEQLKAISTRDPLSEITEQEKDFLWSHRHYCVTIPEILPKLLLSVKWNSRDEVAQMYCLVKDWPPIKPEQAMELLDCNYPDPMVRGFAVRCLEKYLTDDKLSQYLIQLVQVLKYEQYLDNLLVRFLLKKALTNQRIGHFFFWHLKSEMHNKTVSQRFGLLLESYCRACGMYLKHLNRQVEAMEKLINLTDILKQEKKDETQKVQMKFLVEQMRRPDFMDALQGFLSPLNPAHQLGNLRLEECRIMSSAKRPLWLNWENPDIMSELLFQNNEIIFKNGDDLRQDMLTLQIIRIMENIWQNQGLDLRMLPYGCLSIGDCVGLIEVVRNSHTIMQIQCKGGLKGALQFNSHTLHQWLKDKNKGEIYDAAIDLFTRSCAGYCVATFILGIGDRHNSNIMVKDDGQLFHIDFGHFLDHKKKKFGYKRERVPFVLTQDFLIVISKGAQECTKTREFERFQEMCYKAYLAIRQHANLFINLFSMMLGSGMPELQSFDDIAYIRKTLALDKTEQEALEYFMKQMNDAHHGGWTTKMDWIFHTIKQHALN

Chain of PIK3CD (Human) (O00329 whole entry, looked up): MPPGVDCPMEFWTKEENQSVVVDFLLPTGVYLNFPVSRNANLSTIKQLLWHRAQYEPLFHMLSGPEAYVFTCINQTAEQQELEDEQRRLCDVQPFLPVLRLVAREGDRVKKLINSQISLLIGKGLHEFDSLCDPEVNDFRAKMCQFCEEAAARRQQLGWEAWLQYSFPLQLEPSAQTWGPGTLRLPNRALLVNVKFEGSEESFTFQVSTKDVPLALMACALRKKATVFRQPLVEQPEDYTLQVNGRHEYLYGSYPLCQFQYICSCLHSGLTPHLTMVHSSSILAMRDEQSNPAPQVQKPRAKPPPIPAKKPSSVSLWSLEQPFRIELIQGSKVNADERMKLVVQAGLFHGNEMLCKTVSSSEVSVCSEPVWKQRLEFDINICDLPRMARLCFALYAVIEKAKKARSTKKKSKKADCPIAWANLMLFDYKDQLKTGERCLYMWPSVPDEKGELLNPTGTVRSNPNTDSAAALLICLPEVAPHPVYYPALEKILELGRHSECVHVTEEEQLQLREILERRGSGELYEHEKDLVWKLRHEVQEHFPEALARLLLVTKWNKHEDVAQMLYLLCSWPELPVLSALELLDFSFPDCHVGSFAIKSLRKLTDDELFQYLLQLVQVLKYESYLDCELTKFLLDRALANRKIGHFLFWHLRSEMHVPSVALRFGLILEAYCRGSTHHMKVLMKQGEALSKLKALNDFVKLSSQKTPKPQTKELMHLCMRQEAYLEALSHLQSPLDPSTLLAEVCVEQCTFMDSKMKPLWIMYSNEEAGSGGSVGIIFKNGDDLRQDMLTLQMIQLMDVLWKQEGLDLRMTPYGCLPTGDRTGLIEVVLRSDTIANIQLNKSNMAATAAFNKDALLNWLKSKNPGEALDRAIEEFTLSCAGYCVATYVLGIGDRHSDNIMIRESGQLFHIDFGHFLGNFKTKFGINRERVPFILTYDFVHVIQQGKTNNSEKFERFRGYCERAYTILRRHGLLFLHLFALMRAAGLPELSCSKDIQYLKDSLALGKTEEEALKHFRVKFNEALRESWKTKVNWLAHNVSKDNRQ
Chain of PIK3CG (human) (P48736 whole entry, looked up): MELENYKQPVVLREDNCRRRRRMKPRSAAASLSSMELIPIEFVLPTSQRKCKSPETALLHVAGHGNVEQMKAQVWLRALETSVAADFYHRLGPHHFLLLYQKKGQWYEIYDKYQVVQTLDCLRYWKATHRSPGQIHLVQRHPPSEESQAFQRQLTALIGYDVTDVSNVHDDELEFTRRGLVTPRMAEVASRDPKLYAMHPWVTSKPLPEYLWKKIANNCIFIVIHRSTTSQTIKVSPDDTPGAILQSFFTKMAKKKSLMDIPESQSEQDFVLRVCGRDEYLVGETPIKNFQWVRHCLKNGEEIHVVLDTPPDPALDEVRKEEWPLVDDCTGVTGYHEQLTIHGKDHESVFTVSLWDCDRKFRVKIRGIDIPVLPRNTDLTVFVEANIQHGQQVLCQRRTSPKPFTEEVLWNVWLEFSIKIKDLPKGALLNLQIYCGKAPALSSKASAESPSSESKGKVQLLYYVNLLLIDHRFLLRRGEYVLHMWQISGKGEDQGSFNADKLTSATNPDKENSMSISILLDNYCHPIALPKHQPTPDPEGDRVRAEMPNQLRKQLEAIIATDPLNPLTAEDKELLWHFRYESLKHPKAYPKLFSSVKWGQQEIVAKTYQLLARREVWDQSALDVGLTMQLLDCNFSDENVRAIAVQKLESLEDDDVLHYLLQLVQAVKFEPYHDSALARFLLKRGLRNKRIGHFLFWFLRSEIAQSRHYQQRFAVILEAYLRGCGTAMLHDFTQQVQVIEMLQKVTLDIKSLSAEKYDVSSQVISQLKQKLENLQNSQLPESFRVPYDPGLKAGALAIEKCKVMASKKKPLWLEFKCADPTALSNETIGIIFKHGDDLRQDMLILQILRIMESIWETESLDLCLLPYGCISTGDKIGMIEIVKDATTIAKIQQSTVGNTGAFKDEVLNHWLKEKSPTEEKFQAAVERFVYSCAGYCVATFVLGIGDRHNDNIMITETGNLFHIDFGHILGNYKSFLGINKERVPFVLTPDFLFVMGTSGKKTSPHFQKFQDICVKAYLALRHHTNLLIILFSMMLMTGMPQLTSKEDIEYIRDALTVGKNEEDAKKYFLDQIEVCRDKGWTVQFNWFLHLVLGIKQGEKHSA
Chain of PIK3CB (Human) (P42338 whole entry, looked up): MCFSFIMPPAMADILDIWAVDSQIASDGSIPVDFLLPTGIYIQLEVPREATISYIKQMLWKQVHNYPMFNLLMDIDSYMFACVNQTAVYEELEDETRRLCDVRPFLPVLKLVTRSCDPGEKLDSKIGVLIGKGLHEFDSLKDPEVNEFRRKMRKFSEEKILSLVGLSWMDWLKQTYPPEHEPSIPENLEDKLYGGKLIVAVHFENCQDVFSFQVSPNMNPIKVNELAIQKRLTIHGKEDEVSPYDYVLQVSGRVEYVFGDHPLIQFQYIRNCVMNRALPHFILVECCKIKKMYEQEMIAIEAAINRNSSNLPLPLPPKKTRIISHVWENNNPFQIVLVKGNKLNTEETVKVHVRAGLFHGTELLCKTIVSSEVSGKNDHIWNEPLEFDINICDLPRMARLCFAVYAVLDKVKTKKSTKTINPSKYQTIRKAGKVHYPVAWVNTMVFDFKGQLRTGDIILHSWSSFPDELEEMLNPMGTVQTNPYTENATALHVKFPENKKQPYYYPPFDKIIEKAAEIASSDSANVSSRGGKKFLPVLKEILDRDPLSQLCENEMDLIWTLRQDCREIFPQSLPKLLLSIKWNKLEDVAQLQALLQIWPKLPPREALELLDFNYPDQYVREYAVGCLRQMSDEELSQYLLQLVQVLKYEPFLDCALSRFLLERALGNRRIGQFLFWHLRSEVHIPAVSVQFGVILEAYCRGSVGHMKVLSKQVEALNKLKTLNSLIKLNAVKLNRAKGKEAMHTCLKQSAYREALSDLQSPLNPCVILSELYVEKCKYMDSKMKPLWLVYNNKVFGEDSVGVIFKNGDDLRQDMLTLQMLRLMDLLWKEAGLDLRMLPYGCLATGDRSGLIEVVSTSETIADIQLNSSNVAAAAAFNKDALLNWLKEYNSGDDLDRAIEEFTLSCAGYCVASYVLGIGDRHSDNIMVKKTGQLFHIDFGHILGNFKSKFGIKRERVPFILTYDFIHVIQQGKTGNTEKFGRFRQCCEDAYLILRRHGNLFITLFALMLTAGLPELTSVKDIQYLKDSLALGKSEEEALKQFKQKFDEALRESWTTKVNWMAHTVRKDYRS

| IC50 [1] [µM] | IC50 [2] [µM] | IC50 [3] [µM] | IC50 [4] [µM] | Compound |
| --- | --- | --- | --- | --- |
| 0.035 | 0.004 | 0.331 | – | CN1CCN(Cc2cc3nc(-c4cccc(O)c4)nc(N4CCOCC4)c3s2)CC1 |
| – | – | 3.11 | – | COC(=O)Nc1ccc(-c2nc(N3CCOCC3)c3cnn(C4CCN(Cc5cccnc5)CC4)c3n2)cc1 |
| 0.736 | 3.23 | 1.77 | 0.356 | CCC(NC(=O)C(CC(=O)O)NC(=O)CNC(=O)C(CCCN=C(N)N)NC(=O)CCC(=O)O[N+]1(c2cc(=O)c3cccc(-c4ccccc4)c3o2)CCOCC1)C(=O)[O-] (stereo not given) |
| > 10 | – | > 10 | – | CNC(=O)Nc1ccc(-c2nc(N3CC4CCC(C3)O4)c3cnn(C4CCC5(CC4)OCCO5)c3n2)cc1 |
| 0.063 | 0.008 | 0.672 | – | OCCN1CCN(Cc2cc3nc(-c4cccc(O)c4)nc(N4CCOCC4)c3s2)CC1 |
| – | – | 6e-05 | – | COc1ncc(-c2ccc3nccc(-c4ccnnc4)c3c2)cc1NS(=O)(=O)c1ccc(F)cc1F |
| – | – | 7.37 | – | COC(=O)Nc1ccc(-c2nc(N3CCOCC3)c3cnn(C4CCN(C(=O)OC)CC4)c3n2)cc1 |
| – | – | 8.45 | – | c1cncc(CN2CCC(n3ncc4c(N5CCOCC5)nc(-c5ccc6[nH]ccc6c5)nc43)CC2)c1 |
| 18.9 | 3.2 | > 14.8 | 3.59 | COc1ccc(-c2ccc3c(N4CCOC[C@@H]4C)nc(N4CCOC[C@@H]4C)nc3n2)cc1CO |
